Marks after values point to notes of the source that are not given here.
How the values were obtained:
[1] = system: Human primary neonatal foreskin fibroblasts (CRL2097); experiment: Generation of iMSCs from fibroblasts by chemical treatment, flow cytometry for SSEA-4 and PODXL; format: cell-based; conditions: for Percentage of cells with both SSEA-4 and PODXL: CRL2097 fibroblasts, DMEM only 0.1%; for iMSC generation from fibroblasts (in words): SSEA-4+PODXL+ population by flow cytometry, without growth factors
Method: For iMSC dedifferentiation from human fibroblasts, primary fibroblasts were cultured in DMEM-HG for 2 days. The culture medium was then replaced with medium containing different chemical(s), with or without growth factor(s), for 3 to 21 days (FIG. 1A). Cells were cultured at 37° C. under 5% CO2.
Cells were then analyzed by FACSCanto (Becton Dickinson, Franklin Lakes, N.J., USA). SSEA-4 and PODXL double positive cells were isolated using a cell sorter (FACS Aria II, BD Biosciences).
After culture, the cells treated by the chemical cocktail were examined by flow cytometry.
Human primary neonatal foreskin fibroblasts (CRL2097) were cultured in DMEM medium only (as a negative control) or in DMEM medium containing a GSK3β inhibitor (CHIR99021, 3 μM) or a protein kinase C inhibitor (Go6983, 5 μM), and the percentage of the cells converted to iMSCs, co-expressing SSEA-4 and PODXL, were determined by flow cytometer.
Additional combinations of chemicals were analyzed for their activities to generate iMSCs from fibroblasts and the percentage of the cells converted to iMSCs, co-expressing SSEA-4 and PODXL, were determined by flow cytometer.

BMMSCs = experiment: Improvement of multipotency of MSCs: percentage of MSC markers SSEA-4 and PODXL by flow cytometer; format: cell-based, human; conditions: treatment of BMMSCs
Method: For cell surface marker analysis, BMMSCs, iMSCs, and fibroblasts were incubated with FITC-conjugated anti-human SSEA-4 (clone MC-813-70; eBiosciences, San Diego, Calif., USA) and PE-conjugated anti-human PODXL (clone B34D1.3; eBiosciences) antibodies. Cells were then analyzed by FACSCanto (Becton Dickinson, Franklin Lakes, N.J., USA). SSEA-4 and PODXL double positive cells were isolated using a cell sorter (FACS Aria II, BD Biosciences).
BBMSCs were cultured in conversion medium for 6 days, without chemical treatment (control) or with treatment of chemical cocktails (6C+3GF), including six chemical kinase(6C) inhibitors i.e. a p38 inhibitor (5B202190), a JNK inhibitor (SP600125), a protein kinase C inhibitor (Go6983), a ROCK inhibitor (Y-27632), a ERK1/2 inhibitor (PD0325901) and a GSK3β inhibitor (CHIR99021) and three growth factors i.e. a leukemia inhibitory factor (LIF), a basic fibroblast growth factor (bFGF) and a transforming growth factor-β (TGF-β). In other conditions, MSCs were cultured with chemicals cocktails (six, seven or eight chemicals) without the growth factors. The percentages of the MSC markers, SSEA-4 and PODXL, were determined by flow cytometer. Six chemicals (6C) includes a p38 inhibitor (SB202190), a JNK inhibitor (SP600125), a protein kinase C inhibitor (Go6983), a ROCK inhibitor (Y-27632), a ERK1/2 inhibitor (PD0325901) and a GSK3β inhibitor (CHIR99021). […]

[2] = Table 2: other factors or a combination, tested in the same manner

Row | SMILES | Percentage of cells with both SSEA-4 and PODXL [1, 2] [%] | also measured
1 | COc1cc2nc(N3CCCN(C)CC3)nc(NC3CCN(Cc4ccccc4)CC3)c2cc1OC [BIX01294] | 0.30 | 
2 | Cc1cnc(-c2cnc(NCCNc3ccc(C#N)cn3)nc2-c2ccc(Cl)cc2Cl)[nH]1 [CHIR99021, 6-[(2-{[4-(2,4-Dichlorophenyl)-5-(5-methyl-1H-imidazol-2-yl)-2-pyrimidinyl]amino}ethyl)amino]nicotinonitrile] |  | iMSC generation from fibroblasts (in words) [1]: effective in iMSC generation; Percentage of cells with both SSEA-4 and PODXL ([1]; Table 1: single factor in DMEM medium, CHIR99021 3 μM, Go6983 5 μM): 0.9%; Percentage of cells with both SSEA-4 and PODXL ([1]; Table 1: single factor in DMEM medium, CHIR99021 3 μM, Go6983 5 μM, listed as CHIR99201): 0.90%*
3 | Cc1nc(Nc2ncc(C(=O)Nc3c(C)cccc3Cl)s2)cc(N2CCN(CCO)CC2)n1 [Dasatinib] | 0.40 | 
4 | c1cc(-c2cnn3cc(-c4ccc(OCCN5CCCCC5)cc4)cnc23)ccn1 [Dorsomorphin, 6-[4-(2-Piperidin-1-yl-ethoxy)-phenyl]-3-pyridin-4-yl-pyrrazolo[1,5,-α]pyrimidine] | 0.10 | Percentage of cells with both SSEA-4 and PODXL ([1]; Table 2: other factors or a combination, tested in the same manner, listed as dorsomorphin): 0.1%
5 | O=S(=O)(c1cccc2cnccc12)N1CCCNCC1 [Fasudil] | 0.20 | 
6 | N[C@@H](CCC(=O)N[C@@H](CS)C(=O)NCC(=O)O)C(=O)O [GSH, Glutathione] | 0.40 | 
7 | COc1ccc2c(c1)c(C1=C(c3c[nH]c4ccccc34)C(=O)NC1=O)cn2CCCN(C)C [Go6983, 3-{1-[3-(Dimethylamino)propyl]-5-methoxy-1H-indol-3-yl}-4-(1H-indol-3-yl)-1H-pyrrole-2,5-dione] |  | expression of functional markers of BMSCs (in words) (BMMSCs): can effectively increase the expression of functional markers; iMSC generation from fibroblasts (in words) [1]: effective in iMSC generation
8 | O=c1cc(N2CCOCC2)oc2c(-c3ccccc3)cccc12 [LY294002] | 0.80 | 
9 | CC(=O)N[C@@H](CS)C(=O)O [NAC, N-Acetylcysteine] | 0.50 | 
10 | O=C(NOC[C@@H](O)CO)c1ccc(F)c(F)c1Nc1ccc(I)cc1F [PD0325901, N-[(2S)-2,3-Dihydroxypropoxy]-3,4-difluoro-2-[(2-fluoro-4-iodophenyl)amino]benzamide] | 0.40 | 
11 | CO[C@H]1C[C@@H]2CC[C@@H](C)[C@@](O)(O2)C(=O)C(=O)N2CCCC[C@H]2C(=O)O[C@H]([C@H](C)C[C@@H]2CC[C@@H](O)[C@H](OC)C2)CC(=O)[C@H](C)/C=C(\C)[C@@H](O)[C@@H](OC)C(=O)[C@H](C)C[C@H](C)/C=C/C=C/C=C/1C [Rapamycin, (1R,9S,12S,15R,16E,18R,19R,21R,23S,24E,26E,28E,30S,32S,35R)-1,18-Dihydroxy-12-{(2R)-1-[(1S,3R,4R)-4-hydroxy-3-methoxycyclohexyl]-2-propanyl}-19,30-dimethoxy-15,17,21,23,29,35-hexamethyl-11,36-dioxa-4-azatricyclo[30.3.1.0~4,9~]hexatriaconta-16,24,26,28-tetraene-2,3,10,14,20-pentone] | 0.20 | 
12 | Cc1cccc(-c2n[nH]cc2-c2ccc3ncccc3n2)n1 [Repsox, 2-[3-(6-Methyl-2-pyridinyl)-1H-pyrazol-4-yl]-1,5-naphthyridine] | 0.40 | 
13 | COc1ccc(C2CNC(=O)C2)cc1OC1CCCC1 (stereo not shown) [Rolipram] | 0.30 | 
14 | Oc1ccc(-c2nc(-c3ccncc3)c(-c3ccc(F)cc3)[nH]2)cc1 [SB202190] | 0.10 | 
15 | C[S+]([O-])c1ccc(-c2nc(-c3ccc(F)cc3)c(-c3ccncc3)[nH]2)cc1 (stereo not shown) [SB203580] | 0.10 | 
16 | NC(=O)c1ccc(-c2nc(-c3ccc4c(c3)OCO4)c(-c3ccccn3)[nH]2)cc1 [SB431542] | 0.40 | 
17 | CC(C)N(CCCNC(=O)Nc1ccc(C(C)(C)C)cc1)C[C@H]1O[C@@H](n2cc(Br)c3c(N)ncnc32)[C@H](O)[C@@H]1O [SGC0946, 5-Bromo-7-(5-deoxy-5-{isopropyl[3-({[4-(2-methyl-2-propanyl)phenyl]carbamoyl}amino)propyl]amino}-β-D-ribofuranosyl)-7H-pyrrolo[2,3-d]pyrimidin-4-amine] | 0.20 | 
18 | O=C1c2ccccc2-c2n[nH]c3cccc1c23 [SP600125] | 0.20 | 
19 | CCCC(=O)[O-].[Na+] [Sodium butyrate] | 0.70 | 
20 | O=C(NCc1ccccc1)c1csc(Nc2ccncn2)n1 [Thiazovivin] | 0.80 | Percentage of cells with both SSEA-4 and PODXL ([1]; Table 2: other factors or a combination, tested in the same manner, listed as thiazovivin): 0.8%
21 | CCCC(CCC)C(=O)O [VPA, 2-Propylpentanoic acid] | 0.2 | 
22 | O=C1O[C@H]([C@@H](O)CO)C(O)=C1O [VitC, ascorbic acid] | 0.60 | 
23 | C[C@@H](N)[C@H]1CC[C@H](C(=O)Nc2ccncc2)CC1 [Y27632] | 0.50 | 
